According to BindingDB's records for doi:10.1016/S0960-894X(00)80383-2 (1992):
Counter-ions that a name gives are not always drawn.

Test: Concentration required to inhibit the enzyme cathepsin

Ki: 4 µM
SMILES: CCC[C@H](NC(=O)[C@H](Cc1ccc(OC)cc1)NC(=O)CC(C)C)C(=O)N[C@@H](CC1CCCCC1)C(=O)C(F)(F)CN [(S)-2-[(S)-3-(4-Methoxy-phenyl)-2-(3-methyl-butyrylamino)-propionylamino]-pentanoic acid ((S)-4-amino-1-cyclohexylmethyl-3,3-difluoro-2-oxo-butyl)-amide; hydrochloride]
